Publication PMC8233136, “Monomeric bile acids modulate the ATPase activity of detergent-solubilized ABCB4/MDR3” (Journal of Lipid Research, 2021)
Where “and” joins values, the source holds several entries; their conditions need not be identical. Identical values can stand only once.

Tests used:
human ABCB4 [1] = target: T1, human ABCB4 (Homo sapiens, UniProt P21439); assay: ATP hydrolysis (malachite green) of detergent-solubilized, purified ABCB4: modulation of basal ATPase activity; type: biochemical; conditions: for EC50: stimulation of basal ATPase activity, allosteric sigmoidal fit, read-out: EC50; for Emax: vmax of allosteric sigmoidal fit (Equation 1), basal ABCB4 ATPase activity set to 0%, read-out: Max. Stimulation (%)
T1 construct: made in house; host or cells: Pichia pastoris (chromosomally integrated)
Experimental: (§1) The sodium salts of conjugated and unconjugated bile acids were dissolved in double-distilled water (ddH2O) or 100% DMSO at a concentration of 100 mM. While glyco-/tauro-/cholic acid (G/T/CA), glyco-/tauro-/chenodeoxycholic acid (G/T/CDCA) were dissolved in ddH2O water, glyco-/tauro-/deoxycholic acid (G/T/DCA), glyco/-tauro-/ursodeoxycholic acid (G/T/UDCA) as wells as Nor-UDCA and taurolithocholic acid (TLCA) were dissolved in DMSO. […] Modulation of the ATP hydrolysis by bile acid was determined in a concentration-dependent manner from 0 to 1,000 μM bile acids.
(§2) Analysis of the ATP activity of ABCB4 was performed by determining the amount of released, free inorganic orthophosphate by the malachite green assay ([53], [54], [60]) with minor modifications. The assay was performed in a total volume of 100 μl consisting of reaction buffer (50 mM Tris HCl, pH 7.4 at 37°C, 100 mM NaCl) supplemented with the 2.5 × cmc of FC-16 and 10 mM MgCl2. For determining the effect of DOPC, different bile acids or combinations thereof, 1–5 μL of the corresponding stock solutions (see lipid and bile acid preparation) were added. Five micrograms of ABCB4 or the BODIPY®-labeled sample was used in every reaction sample. Reaction was started by addition of ATP (5 mM f.c.) and performed for 40 min at 37°C. After 0 and 40 min, the reaction was stopped by transferring 25 μl of the reaction mixture into a 96-well plate containing 175 μl of 20 mM ice-cold sulfuric acid. Additionally, a phosphate standard with concentrations raging from 0 to 500 μM was used. Subsequently, inorganic phosphate was stained by adding 50 μl of dye (0.096% (w/v) malachite green, 1.48% (w/v) ammonium molybdate, 0.173% (w/v) Tween-20, and […] sulfuric acid). After incubation for 15 min, the absorption at 595 nm was measured (iMark™ Microplate Reader, BioRad), and the concentrations of phosphate release were calculated based on the slope of the line calculated based on the phosphate standards.
(§3) Basal ATPase activity of ABCB4 was set to 0% and the effect of supplements was calculated as % stimulation or % inhibition of the basal activity, respectively. For determination of kinetic parameters, bile acid concentration was varied and analyzed according to an allosteric sigmoidal fit (Equation 1):(1) v=vmax∗[S]^h/EC50h+[S]^h
Here, v describes the stimulation (%), vmax is the maximal stimulation (%), EC50 represents the half maximal effective concentration, S is the substrate concentration, and h is the Hill coefficient
In case of inhibition, the reduction (%) was plotted against the bile acid concentration and data were analyzed using Equation 2:(2) y=ymin+(ymax−ymin)/1+10^((logIC50−x)∗slope)
Here, ymax is the smallest, and ymin is the highest amount of inhibition, respectively, and x represents the concentration of the inhibitor. The IC50 value is defined as the concentration necessary to obtain 50% inhibition.
In case of both substrate stimulations, followed by substrate inhibition after maximal stimulation was reached, the modulation (%) was plotted against the substrate concertation and data was analyzed using by two fits: First part (stimulation) was as usually fitted using Equation 1. The second part (substrate inhibition) was analyzed by Equation 3 starting at the last point of the plateau:(3) y=ymin+[…]/(1+x/IC50)
Here, ymax is the highest value of the plateau after stimulation is reached, while ymin is the smallest value of y after maximal stimulation was reached.

[2] = Critical micelle concentration by Hoechst 33342 fluorescence in ATPase reaction buffer; type: physicochemical; conditions: 50 mM Tris-HCl pH 7.5, 100 mM NaCl, 37°C; no FC-16, MgCl2 or ATP
Experimental: CMC values were determined as described ([61]). […] 96-well plates suitable for fluorescence spectroscopy (Greiner Bio-One, FIA plate, black, flat bottom, medium binding) were used. […] CMCs of the bile acids were determined in ATPase reaction buffer (50 mM Tris-HCl, pH 7.5 (at 37°C), 100 mM NaCl) containing no FC-16, MgCl2, or ATP at 37°C using a Tecan M200 plate reader (Atlantic lab equipment). Bile acids were dissolved either in ddH2O or in 100% DMSO (as stated in “Lipid, cholesterol and bile acid preparation”) at a concentration of 100 mM. […] In case of hydrophobic bile acids, which were dissolved in DMSO, DMSO concentration was adapted to 1% in all wells. […] After background correction, fluorescence data were analyzed using Prism (version 8, GraphPad) with Equation 4:(4) F=Fmax∗(c[BA]−cmc)/(K0.5−cmc)+(c[BA]−cmc)
The measured fluorescence at each bile acid concentration (c[BA]) is represented by F, while Fmax is the maximal fluorescence, K0.5 is the midpoint of the function, and cmc is the critical micelle concentration of the bile acid.

human ABCB4 [3] = target: T1, human ABCB4; assay: ATP hydrolysis (malachite green) of purified ABCB4 in the presence of 300 μM DOPC (with or without cholesterol); type: biochemical; conditions: for activity at 1000 µM: 1,000 μM bile acid/detergent/BAM + 300 μM DOPC, read-out: Relative ATPase activity in the presence of 300 μM DOPC
Experimental: A sample of purified ABCB4 was incubated with 10-fold molar excess of BODIPY® FL maleimide (BODIPY® FL N-(2-aminoethyl)maleimide, Molecular Probes) at 22°C for 20 min. The reaction was quenched after 20 min by addition of a 20-fold molar excess of dithiothreitol (DTT) at 22°C for 10 min. Qualitative labeling efficiency was analyzed by visualizing a sample after SDS-PAGE by UV excitation.
DOPC was dissolved in chloroform, the solvent was evaporated, and the dried lipid sample was redissolved in ATP hydrolysis reaction buffer (50 mM Tris HCl, pH 7.4 at 37°C, 100 mM NaCl) at a concentration of 25.4 mM following the protocol of Geertsma et al. ([59]). Prior to the addition of the DOPC sample to the ATP hydrolysis assay, it was diluted to 5 mM, sonicated until a clear solution was obtained, and subsequently used at a final concentration of 300 μM. Since chloroform is not suitable for the later ATPase assay and cholesterol at higher concentration is insoluble in water and nearly all solvents, a molar mixture of cholesterol and DOPC was used. This mixture was obtained by adding the required molar ratio of cholesterol to always the same amount of dried DOPC. Afterward, the mixture was treated identical to DOPC only as described above resulting in a final concentration (f.c.) of 300 μM DOPC with 0–1,000 μM cholesterol in the ATPase assay.
as §1, §2, §3

[4] = Solubility / precipitation of bile acids under assay conditions; type: physicochemical; conditions: assay setup, DMSO stock
Experimental: as §1, with “DMSO. Glyco- and unconjugated lithocholic acid could not be dissolved in DMSO in the appropriate concentrations and therefore excluded.” for “DMSO.”

[5] = Hill coefficient of allosteric sigmoidal fit of ATPase stimulation

T1 sequence (P21439 1-1279 isoform P21439-2): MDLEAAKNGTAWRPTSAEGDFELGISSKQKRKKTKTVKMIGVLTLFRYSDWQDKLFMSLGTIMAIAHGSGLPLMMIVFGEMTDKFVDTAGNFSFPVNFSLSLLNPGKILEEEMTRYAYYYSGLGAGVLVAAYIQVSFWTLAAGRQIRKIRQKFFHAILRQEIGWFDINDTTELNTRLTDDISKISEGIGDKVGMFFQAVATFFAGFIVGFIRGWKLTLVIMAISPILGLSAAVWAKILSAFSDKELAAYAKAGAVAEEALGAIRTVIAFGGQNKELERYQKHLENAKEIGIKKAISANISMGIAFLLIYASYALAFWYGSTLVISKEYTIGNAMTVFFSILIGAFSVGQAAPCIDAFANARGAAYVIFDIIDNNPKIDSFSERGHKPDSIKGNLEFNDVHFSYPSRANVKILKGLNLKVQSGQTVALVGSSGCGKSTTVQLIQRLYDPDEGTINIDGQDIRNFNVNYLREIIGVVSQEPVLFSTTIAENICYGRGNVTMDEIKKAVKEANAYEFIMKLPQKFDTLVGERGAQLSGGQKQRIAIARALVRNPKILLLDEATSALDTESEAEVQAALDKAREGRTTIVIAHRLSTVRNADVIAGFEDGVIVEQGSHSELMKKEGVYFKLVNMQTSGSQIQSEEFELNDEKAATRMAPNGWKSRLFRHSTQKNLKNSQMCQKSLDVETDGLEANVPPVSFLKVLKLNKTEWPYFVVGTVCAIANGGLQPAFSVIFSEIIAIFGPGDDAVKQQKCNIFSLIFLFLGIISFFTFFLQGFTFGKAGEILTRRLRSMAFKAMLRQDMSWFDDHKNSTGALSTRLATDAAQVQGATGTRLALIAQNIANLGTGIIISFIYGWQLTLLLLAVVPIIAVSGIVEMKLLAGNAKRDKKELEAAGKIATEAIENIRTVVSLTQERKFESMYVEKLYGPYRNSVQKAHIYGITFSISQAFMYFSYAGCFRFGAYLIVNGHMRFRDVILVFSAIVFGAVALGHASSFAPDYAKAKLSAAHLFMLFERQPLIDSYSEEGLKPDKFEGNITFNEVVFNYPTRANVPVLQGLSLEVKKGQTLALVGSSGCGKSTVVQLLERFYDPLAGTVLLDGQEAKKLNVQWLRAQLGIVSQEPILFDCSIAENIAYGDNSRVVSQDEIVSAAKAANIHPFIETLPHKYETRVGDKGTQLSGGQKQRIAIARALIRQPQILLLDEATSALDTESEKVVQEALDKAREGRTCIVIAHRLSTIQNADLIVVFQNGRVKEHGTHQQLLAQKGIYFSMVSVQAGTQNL

Row | Structure (SMILES) | Slope (human ABCB4 [1]; [5]) | EC50 (human ABCB4 [1]; 0-1,000 μM) [µM] | Emax (human ABCB4 [1]; 0-1,000 μM) [%] | Critical micelle concentration (cmc) [2] | activity at 1000 µM (human ABCB4 [3]; DOPC alone set to 100%) [%] | Increase of ATPase activity compared with UDCA (human ABCB4 [1]; maximal stimulation, side chain shortened by one carbon atom) | ATPase activity in the presence of cholesterol:DOPC 1.5:1 (human ABCB4 [3]; 1,000 μM BAM or Nor-UDCA added to cholesterol:DOPC (1.5:1, 300 μM DOPC), DOPC alone set to 100%) [%] | Concentration at which maximal stimulation (plateau) of ATPase activity is reached (human ABCB4 [1]; basal ATPase activity, 0-1,000 μM) | Reduction of ATPase activity at 100 μM (human ABCB4 [1]; 100 μM) [%] | inhibition at 1000 µM (human ABCB4 [1]; 1,000 μM, 5% DMSO, mixture experiment Fig. 6, read-out: Inhibition of basal ATPase activity by pure bile acid at 1,000 μM) [%] | Concentration at which maximal inhibition is reached (human ABCB4 [1]; basal ATPase activity) [µM] | IC50 (human ABCB4 [1]; inhibition of basal ATPase activity, Equation 2) [µM] | Slope (human ABCB4 [1]; slope of inhibition fit (Equation 2)) | Decrease of DOPC-stimulated ATPase activity (human ABCB4 [3]; 1,000 μM + 300 μM DOPC, relative to DOPC alone) | Concentration above which the bile acid precipitated [4]
1 | C[C@H](CCC(=O)NCC(=O)O)[C@H]1CC[C@H]2[C@@H]3CC[C@@H]4C[C@H](O)CC[C@]4(C)[C@H]3C[C@H](O)[C@]12C [GDCA] | 5.9 ± 1.2 | 47.9 ± 1.5 | 259 ± 5 | 2.0 mM and 2.0 ± 0.1 mM | 156 ± 8.9 | – | – | – | – | – | – | – | – | – | –
2 | C[C@H](CCC(=O)NCC(=O)O)[C@H]1CC[C@H]2[C@@H]3[C@@H](O)C[C@@H]4C[C@H](O)CC[C@]4(C)[C@H]3CC[C@]12C [GUDCA] | 4.5 ± 1.0 | 393 | 185 ± 13 | 1.6 mM and 1.6 ± 0.1 mM | 111 ± 3.1 | – | – | – | – | – | – | – | – | – | –
3 | C[C@H](CCC(=O)NCC(=O)O)[C@H]1CC[C@H]2[C@@H]3CC[C@@H]4C[C@H](O)CC[C@]4(C)[C@H]3CC[C@]12C [Glycolithocholic acid] | – | – | – | Precipitate ^a | – | – | – | – | – | – | – | – | – | – | higher than 100 μM
4 | C[C@H](CC(=O)O)[C@H]1CC[C@H]2[C@@H]3[C@@H](O)C[C@@H]4C[C@H](O)CC[C@]4(C)[C@H]3CC[C@]12C [Nor-UDCA, 24-nor-ursodeoxycholic acid] | 6.3 ± 1.3 | 476 ± 18.5 | 195 ± 10.8 | 1.8 mM and 1.8 ± 0.1 mM | 373 ± 30 | approximately 85% | 380.7 ± 45.6 | – | – | – | – | – | – | – | –
5 | C[C@H](CCC(=O)O)[C@H]1CC[C@H]2[C@@H]3[C@@H](O)C[C@@H]4C[C@H](O)CC[C@]4(C)[C@H]3CC[C@]12C [UDCA, Ursodeoxycholic acid] | 4.6 ± 1.3 | 470 ± 34.5 | 110 ± 10.7 | 1.3 mM and 1.3 ± 0.1 mM | 115 ± 22.1 | – | – | – | – | – | – | – | – | – | –

Continued, in another order:

Row | Slope (human ABCB4 [1]; [5]) | EC50 (human ABCB4 [1]; 0-1,000 μM) [µM] | Emax (human ABCB4 [1]; 0-1,000 μM) [%] | Critical micelle concentration (cmc) [2] | activity at 1000 µM (human ABCB4 [3]; DOPC alone set to 100%) [%] | Increase of ATPase activity compared with UDCA (human ABCB4 [1]; maximal stimulation, side chain shortened by one carbon atom) | ATPase activity in the presence of cholesterol:DOPC 1.5:1 (human ABCB4 [3]; 1,000 μM BAM or Nor-UDCA added to cholesterol:DOPC (1.5:1, 300 μM DOPC), DOPC alone set to 100%) [%] | Concentration at which maximal stimulation (plateau) of ATPase activity is reached (human ABCB4 [1]; basal ATPase activity, 0-1,000 μM) | Reduction of ATPase activity at 100 μM (human ABCB4 [1]; 100 μM) [%] | inhibition at 1000 µM (human ABCB4 [1]; 1,000 μM, 5% DMSO, mixture experiment Fig. 6, read-out: Inhibition of basal ATPase activity by pure bile acid at 1,000 μM) [%] | Concentration at which maximal inhibition is reached (human ABCB4 [1]; basal ATPase activity) [µM] | IC50 (human ABCB4 [1]; inhibition of basal ATPase activity, Equation 2) [µM] | Slope (human ABCB4 [1]; slope of inhibition fit (Equation 2)) | Decrease of DOPC-stimulated ATPase activity (human ABCB4 [3]; 1,000 μM + 300 μM DOPC, relative to DOPC alone) | Structure (SMILES) | Concentration above which the bile acid precipitated [4]
6 | 2.6 ± 0.4 | 169 ± 11 | 423 ± 15 | 1.7 mM and 1.7 ± 0.1 mM | 112 ± 8.2 | – | – | approximately 500 μM | – | – | – | – | – | – | C[C@H](CCC(=O)NCCS(=O)(=O)O)[C@H]1CC[C@H]2[C@@H]3[C@H](O)C[C@@H]4C[C@H](O)CC[C@]4(C)[C@H]3CC[C@]12C [TCDCA, taurochenodeoxycholic acid] | –
7 | 2.7 ± 0.3 | 102 ± 4.2 | 217 ± 4 | 1.7 mM and 1.7 ± 0.1 mM | 84.8 ± 9.3 | – | – | – | – | – | – | – | – | – | C[C@H](CCC(=O)NCCS(=O)(=O)O)[C@H]1CC[C@H]2[C@@H]3CC[C@@H]4C[C@H](O)CC[C@]4(C)[C@H]3C[C@H](O)[C@]12C [TDCA] | –
8 | – | – | – | 0.14 mM and 0.14 ± 0.03 mM | 34.8 ± 21.9 | – | – | – | 36 | ~50 | 400 | 113 | −2.7 ± 2.1 | approximately 65% | C[C@H](CCC(=O)NCCS(=O)(=O)O)[C@H]1CC[C@H]2[C@@H]3CC[C@@H]4C[C@H](O)CC[C@]4(C)[C@H]3CC[C@]12C [TLCA, taurolithocholic acid] | –
9 | 4.5 ± 1.4 | 267 | 154 ± 11 | 1.5 mM and 1.5 ± 0.2 mM | 88.2 ± 8.3 | – | – | – | – | – | – | – | – | – | C[C@H](CCC(=O)NCCS(=O)(=O)O)[C@H]1CC[C@H]2[C@@H]3[C@@H](O)C[C@@H]4C[C@H](O)CC[C@]4(C)[C@H]3CC[C@]12C [TUDCA] | –
